Read-outs that look alike come from different tables or passages of the source.
Assays:
[1] = target: T1, BuChE (EC 3.1.1.8) from horse serum (Equus caballus, UniProt P81908); test: biochemical; assay type: biochemical; details: BuChE from horse serum; mean ± SEM of three experiments
T1 construct: purchased Sigma-Aldrich C0663; host or cells: equine serum
Procedure: (§1) AChE (EC 3.1.1.7, Type VI-S, from electric eel, C3389; from human, C1682) and BuChE (EC 3.1.1.8, from equine serum, C0663; from human, B4186), 5,5'-dithiobis (2-nitrobenzoic acid) (DTNB, D218200), acetylthiocholine iodide (ATC, A5751), and butyrylthiocholine iodide (BTC, B3253) were obtained from Sigma-Aldrich (St. Louis, MO).
The inhibitory effects of the synthesised compounds in this paper were evaluated according to our previously reported method. […] ATC/BTC iodide solution (0.075 M) was prepared in deionised water. […] The assay buffer was prepared as follows: potassium dihydrogen phosphate (1.36 g, 10 mmol) was dissolved in 100 ml of water. The pH of the solution was then adjusted to 8.0 ± 0.1 with KOH. Stock solutions of the test samples were dissolved in ethanol to give a final concentration of 10^−4 M when diluted to the final volume of 3.32 ml. For each compound, a dilution series of at least five different concentrations (normally 10^−5–10^−9 M) were prepared.
For measurement, a cuvette containing 3.0 ml of phosphate buffer, 100 µL of AChE or BuChE, 100 µL of DTNB, and 100 µL of the test compound solution were added in sequence. The reaction was initiated after adding 20 µL of ATC or BTC, and the solution was mixed immediately. […] For the reference value, 100 µL of water replaced the test compound solution. For the blank control, additionally 100 µL of water replaced the enzyme solution. The measurement for each concentration was assayed in triplicate. GraphPad Prism 5 was used for data processing. The inhibition curve was fitted by plotting percentage enzyme activity (100% for the reference) versus logarithm of test compound concentration. The IC50 values were calculated according to the curve, and the data were shown in mean ± SEM.
The inhibitory effects on ChEs of all the target compounds were determined according to Ellman’s method. AChE from electrophorus electricus (eeAChE) and BuChE from equine serum (eqBuChE) were used in the assays.

[2] = target: T2, AChE (EC 3.1.1.7) from human (Homo sapiens, UniProt P22303); test: Human AChE inhibition, Ellman's method; assay type: biochemical
T2 construct: purchased Sigma-Aldrich C1682
Procedure: as §1
(§2) The inhibitory effects of the synthesised compounds in this paper were evaluated according to our previously reported method. Briefly, AChE/BuChE stock solution was diluted to give 2.5 units/mL (for eeAChE, eqBuChE, and huAChE) or 0.5 units/mL for huBuChE. ATC/BTC iodide solution (0.075 M) was prepared in deionised water. DTNB solution (0.01 M) was prepared using water containing 0.15% (w/v) sodium bicarbonate. The assay buffer was prepared as follows: potassium dihydrogen phosphate (1.36 g, 10 mmol) was dissolved in 100 ml of water. The pH of the solution was then adjusted to 8.0 ± 0.1 with KOH. Stock solutions of the test samples were dissolved in ethanol to give a final concentration of 10^−4 M when diluted to the final volume of 3.32 ml. For each compound, a dilution series of at least five different concentrations (normally 10^−5–10^−9 M) were prepared.
(§3) For measurement, a cuvette containing 3.0 ml of phosphate buffer, 100 µL of AChE or BuChE, 100 µL of DTNB, and 100 µL of the test compound solution were added in sequence. The reaction was initiated after adding 20 µL of ATC or BTC, and the solution was mixed immediately. Two minutes (eeAChE and eqBuChE) or 15 min (huAChE and huBuChE) after ATC or BTC addition, the absorption was measured at 25 °C (eeAChE and eqBuChE) or 37 °C (huAChE and huBuChE) at 412 nm, using a Shimadzu 160 spectrophotometer. For the reference value, 100 µL of water replaced the test compound solution. For the blank control, additionally 100 µL of water replaced the enzyme solution. The measurement for each concentration was assayed in triplicate. GraphPad Prism 5 was used for data processing. The inhibition curve was fitted by plotting percentage enzyme activity (100% for the reference) versus logarithm of test compound concentration. The IC50 values were calculated according to the curve, and the data were shown in mean ± SEM.

[3] = target: T3, BuChE (EC 3.1.1.8) from human (Homo sapiens, UniProt P06276); test: Human BuChE inhibition, Ellman's method; assay type: biochemical; details: huBuChE; mean ± SEM
T3 construct: purchased Sigma-Aldrich B4186
Procedure: as §1, §2
as §3, with “The inhibition curve was fitted by plotting percentage enzyme activity (100% for the reference) versus logarithm of test compound concentration.” left out

[4] = target: T4, huBuChE (Homo sapiens, UniProt P06276); test: Kinetic study of huBuChE inhibition (Lineweaver-Burk, Michaelis-Menten); assay type: biochemical; details: Lineweaver–Burk plots, 1, 2, 4, 10 nM
T4 construct: purchased Sigma-Aldrich B4186
Procedure: Kinetic studies were performed according to methods reported previously. The concentrations of the substrate ATC or BTC were prepared as 25, 50, 90, 150, 226, and 452 µM. Different concentrations of compound 19 with 0, 1, 2, 4, 10 nM, were also prepared by stock solution. For measurement, the enzymatic reaction was extended to 20 min (huAChE and huBuChE) before the determination of the absorption. Graph Pad Prism 5 was applied for data processing. Vmax and Km values of the Michaelis–Menten kinetics were determined by nonlinear regression from substrate-velocity curves, while Lineweaver–Burk plots were fitted by using linear regression method.

[5] = tested on: ICR mice
Procedure: The activity of AST and ALT, two indicators of liver damage, was determined using corresponding assay kit (EF551 and EF550 for ALT, EH027, and EF548 for AST, Wako, Japan).
One hour after the collection of retrobulbar blood, mice were sacrificed and livers were harvested for morphological studies by using immunohistochemical method. Two 3 mm sections of each liver extending from the hilus to the margin of the left lateral lobe were isolated by Ultra-Thin Semiautomatic Microtome (Leica RM2245, Germany) and immediately placed in 10% buffered formaldehyde, fixed for two days, and embedded together in one paraffin block by using Paraffin Embedding Station (Leica EG1150H, Germany). Subsequently, 5 µm sections were prepared from these paraffin blocks. They were deparaffinated and stained with hematoxylin and eosin or by means of the periodic acid-Schiff procedure for glycogen.

[6] = tested on: ICR mice; test: Morris water maze test, scopolamine-induced cognitive impairment
[7] = 22 h after ig administration, 151.5 µmol/kg, mice serum, n = 6
[8] = 36 h after ig administration, 151.5 µmol/kg, mice serum, n = 6

T2 sequence (P22303 32-614): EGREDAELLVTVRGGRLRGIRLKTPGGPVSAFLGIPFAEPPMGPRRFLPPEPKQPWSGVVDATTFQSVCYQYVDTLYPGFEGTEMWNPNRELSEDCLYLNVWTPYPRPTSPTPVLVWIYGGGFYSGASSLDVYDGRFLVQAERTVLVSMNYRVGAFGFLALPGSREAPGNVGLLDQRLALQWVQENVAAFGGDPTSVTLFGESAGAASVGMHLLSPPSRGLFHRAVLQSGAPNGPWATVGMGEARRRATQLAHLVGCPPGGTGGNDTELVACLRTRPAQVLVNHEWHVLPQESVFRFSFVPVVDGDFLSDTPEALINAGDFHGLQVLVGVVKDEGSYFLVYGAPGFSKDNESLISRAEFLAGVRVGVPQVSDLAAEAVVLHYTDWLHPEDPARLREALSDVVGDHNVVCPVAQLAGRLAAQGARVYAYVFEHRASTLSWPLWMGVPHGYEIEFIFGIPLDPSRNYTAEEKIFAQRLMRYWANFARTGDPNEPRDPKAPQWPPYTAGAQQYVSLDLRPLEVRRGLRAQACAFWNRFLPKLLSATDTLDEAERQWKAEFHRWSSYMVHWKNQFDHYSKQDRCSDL
T1 sequence (P81908 whole entry): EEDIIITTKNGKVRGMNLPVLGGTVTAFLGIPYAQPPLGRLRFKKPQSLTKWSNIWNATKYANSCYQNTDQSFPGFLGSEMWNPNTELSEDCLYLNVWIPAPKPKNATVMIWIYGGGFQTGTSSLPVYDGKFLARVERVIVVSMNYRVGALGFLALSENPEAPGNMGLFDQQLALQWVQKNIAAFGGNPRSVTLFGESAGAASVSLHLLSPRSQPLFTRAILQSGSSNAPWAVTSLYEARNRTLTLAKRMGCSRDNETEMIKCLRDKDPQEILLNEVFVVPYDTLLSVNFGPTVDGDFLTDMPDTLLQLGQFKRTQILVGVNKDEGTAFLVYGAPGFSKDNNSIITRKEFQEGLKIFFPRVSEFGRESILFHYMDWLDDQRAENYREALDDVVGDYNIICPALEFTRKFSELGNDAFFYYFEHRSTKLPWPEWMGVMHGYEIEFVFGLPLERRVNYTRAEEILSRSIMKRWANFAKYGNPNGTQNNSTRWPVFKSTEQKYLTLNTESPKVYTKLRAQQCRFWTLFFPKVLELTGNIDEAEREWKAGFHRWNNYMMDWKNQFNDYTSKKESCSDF
T4 sequence (P06276 29-602): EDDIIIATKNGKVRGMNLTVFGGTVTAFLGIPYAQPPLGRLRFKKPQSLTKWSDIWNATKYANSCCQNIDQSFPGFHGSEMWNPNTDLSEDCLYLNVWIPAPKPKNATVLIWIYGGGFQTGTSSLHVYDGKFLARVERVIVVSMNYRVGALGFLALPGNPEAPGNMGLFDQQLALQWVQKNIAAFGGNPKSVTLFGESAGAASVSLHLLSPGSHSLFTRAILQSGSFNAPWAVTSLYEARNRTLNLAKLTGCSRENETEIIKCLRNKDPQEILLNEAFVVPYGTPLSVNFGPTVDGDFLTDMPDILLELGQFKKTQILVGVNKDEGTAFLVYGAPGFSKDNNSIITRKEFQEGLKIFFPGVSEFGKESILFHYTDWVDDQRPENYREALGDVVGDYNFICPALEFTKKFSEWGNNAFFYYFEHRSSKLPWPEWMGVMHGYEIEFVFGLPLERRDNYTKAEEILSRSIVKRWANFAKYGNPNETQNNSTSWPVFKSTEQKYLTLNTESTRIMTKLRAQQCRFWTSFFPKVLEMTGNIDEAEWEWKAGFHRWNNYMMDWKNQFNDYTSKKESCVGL
T3 sequence (P06276 29-602): as above

Structure (SMILES): O=C(/C=C/c1ccc([N+](=O)[O-])cc1)NCCCCCCNc1c2c(nc3ccccc13)CCCC2 [Compound 19, (E)-3-(4-nitrophenyl)-N-(6-((1,2,3,4-tetrahydroacridin-9-yl)amino)hexyl)acrylamide]
- IC50 [1]: 6.5 ± 0.6 nM
- IC50 ([2]; huAChE, mean ± SEM): 10.2 nM
- Selectivity index (SI) = BuChE IC50/AChE IC50, human enzymes ([2]; huBuChE IC50 / huAChE IC50): 0.6
- IC50 [3]: 6.3 nM
- type of inhibition on huBuChE [4]: mixed-type inhibition
- AST (U/L) ([5]; 8 h after ig administration, 151.5 µmol/kg, mice serum, n = 6): 119.6 ± 10.8 U/L
- ALT (U/L) [5, 7]: 44.4 ± 3.9 U/L
- AST (U/L) [5, 7]: 130.6 ± 8.2 U/L
- ALT (U/L) [5, 8]: 40.2 ± 2.5 U/L
- AST (U/L) [5, 8]: 133.9 ± 13.5 U/L
- ALT (U/L) ([5]; mouse, in vivo): 36.0 ± 2.9 U/L
- morphologic changes in liver ([5]; mouse, in vivo): did not cause remarkable morphologic changes in liver
- Latency to target (second), Day 5 ([6]; learning and training, Day 5, oral, plus scopolamine, ICR mice): 54.1 ± 8.9 s
- Latency to target (second), Day 6 ([6]; learning and training, Day 6, oral, plus scopolamine, ICR mice): 36.5 ± 4.2 s
- Latency to target (second), Day 7 ([6]; learning and training, Day 7, oral, plus scopolamine, ICR mice): 36.6 ± 4.3 s
- Latency to target (second), Day 8 ([6]; learning and training, Day 8, oral, plus scopolamine, ICR mice): 35.2 ± 4.7 s
- Latency to target (second), Day 9 ([6]; learning and training, Day 9, oral, plus scopolamine, ICR mice): 26.1 ± 1.4 s
- Latency to Target ([6]; probe trial, oral administration plus scopolamine (1 mg/kg ip), ICR mice, mean ± SEM, n = 6): 25.0 ± 1.5 s
- trajectory in the Morris water maze test ([6]; scopolamine-impaired ICR mice, compared to tacrine group): much shortened distances as compared to tacrine group

— article PMC7011792 (Journal of Enzyme Inhibition and Medicinal Chemistry, 2017)
